This note sets out measurements from ChEMBL document CHEMBL1938369, “A small molecule inhibitor of p53-inducible protein phosphatase PPM1D” (Bioorg Med Chem Lett, 2012).

SMILES strings stand for the structures. Active and inactive are the calls of the source. The calls are words filed in the database; no cut-off is given here.

For experiment [1], the target named is T1, Protein phosphatase 1D (Homo sapiens) (UniProt O15297).
T1 sequence (whole entry): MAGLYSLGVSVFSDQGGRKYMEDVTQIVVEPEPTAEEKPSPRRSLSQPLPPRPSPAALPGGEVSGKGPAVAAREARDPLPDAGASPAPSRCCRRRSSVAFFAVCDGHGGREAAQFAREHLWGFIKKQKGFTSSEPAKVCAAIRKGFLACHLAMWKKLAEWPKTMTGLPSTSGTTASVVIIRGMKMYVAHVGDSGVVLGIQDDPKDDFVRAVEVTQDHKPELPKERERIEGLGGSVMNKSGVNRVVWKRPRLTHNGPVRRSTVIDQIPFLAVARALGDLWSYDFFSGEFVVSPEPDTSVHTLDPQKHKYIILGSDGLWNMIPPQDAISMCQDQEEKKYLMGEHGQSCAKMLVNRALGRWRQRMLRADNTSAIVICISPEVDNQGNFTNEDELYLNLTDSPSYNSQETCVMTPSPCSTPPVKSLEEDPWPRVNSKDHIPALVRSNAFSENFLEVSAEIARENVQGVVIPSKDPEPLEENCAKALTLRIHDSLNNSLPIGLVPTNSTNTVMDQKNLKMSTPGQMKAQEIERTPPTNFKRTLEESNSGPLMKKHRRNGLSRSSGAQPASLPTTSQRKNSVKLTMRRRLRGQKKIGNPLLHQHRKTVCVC
The experiment is described as follows: Inhibition of N-terminal histidine-tagged PPM1Dc at 4 uM after 10 mins by BIOMOL GREEN assay.

The target in experiment [2] is T1, Protein phosphatase 1D (Homo sapiens). Kind of experiment: Inhibition of PPM1D in human MCF7 cells assessed as increase in p53 phosphorylation at Ser15 by Western blot analysis. The class given is cell-based. In general terms: In western blotting, separated proteins are transferred to a membrane and probed.
For experiment [3] the target is unchanged. Kind of experiment: Inhibition of PPM1D in UV-irradiated human MCF7 cells assessed as increase in p53 phosphorylation at Ser15 measuring p53 protein level by Western blot analysis. Format: cell-based.
The test system of experiment [4] is MCF7. The experiment is described as follows: Increase in PPM1D protein expression in human MCF7 cells at 10 uM after 24 hrs by immunofluorescence analysis. The class given is functional, cell-based.
For experiment [5], the target named is T2, Protein phosphatase 1D (Homo sapiens, UniProt O15297).
T2 sequence (O15297 whole entry): T1 sequence (whole entry)
Kind of experiment: Inhibition of N-terminal histidine-tagged PPM1Dc after 10 mins using BIOMOL GREEN assay.

The subject of experiment [6] is MCF7. The experiment is described as follows: Antiproliferative activity against human MCF7 cells overexpressing PPM1D at 40 uM after 1 to 5 days by trypan blue assay. The class given is functional.
Experiment [7] concerns MCF7. Kind of experiment: Induction of cell cycle arrest in human MCF7 cells assessed as accumulation at […] phase at 40 uM after 5 days by propidium iodide staining-based flow cytometry (reference value: 13.8 %). The class given is functional. A general note: In flow cytometry, cells or beads pass a laser one at a time.
The test system of experiment [8] is MCF7. Kind of experiment: Induction of cell cycle arrest in human MCF7 cells assessed as accumulation at Sub-G1 phase at 40 uM by propidium iodide staining-based flow cytometry. The class given is functional. The settings on record: TDE = time-dependent effect.
Experiment [9] concerns MCF7. Kind of experiment: Induction of cell cycle arrest in human MCF7 cells assessed as accumulation at G1 phase at 40 uM after 3 days by propidium iodide staining-based flow cytometry (reference value: 38.5 %). Format: functional.
For experiment [10], the system named is MCF7. The experiment is described as follows: Induction of cell cycle arrest in human MCF7 cells assessed as accumulation at G2/M phase at 40 uM after 3 days by propidium iodide staining-based flow cytometry (reference value: 22.9 %). The class given is functional.
Experiment [11] relates to MCF7. Kind of experiment: Induction of cell cycle arrest in human MCF7 cells assessed as accumulation at Sub-G1 phase at 40 uM after 5 days by propidium iodide staining-based flow cytometry (reference value: 8.1 %). The class given is functional.
In experiment [12] the test system is MCF7. Kind of experiment: Induction of cell cycle arrest in human MCF7 cells assessed as accumulation at G2/M phase at 40 uM after 1 day by propidium iodide staining-based flow cytometry (reference value: 21.4 %). The class given is functional.
Experiment [13] deals with A549. The experiment is described as follows: Antiproliferative activity against human A549 cells at 40 uM after 1 to 5 days by trypan blue assay. The class given is functional, cell-based.
Experiment [14] deals with MCF7. The experiment is described as follows: Increase in PPM1D protein expression in human MCF7 cells by Western blot analysis. The class given is functional, cell-based.
Experiment [15] has as its system MCF7. The experiment is described as follows: Induction of cell cycle arrest in human MCF7 cells assessed as accumulation at Sub-G1 phase at 40 uM after 3 days by propidium iodide staining-based flow cytometry (reference value: 9.4 %). Format: functional.
Experiment [16] in a line: Inhibition of PP2A using Ac-DDEMT(P)GYVATR-NH2 as substrate at 40 uM after 10 mins by BIOMOL GREEN assay.
Experiment [17] relates to MCF7. Kind of experiment: Induction of cell cycle arrest in human MCF7 cells assessed as accumulation at […] phase at 40 uM after 1 day by propidium iodide staining-based flow cytometry (reference value: 24 %). The class given is functional.
The subject of experiment [18] is MCF7. Kind of experiment: Antiproliferative activity against human MCF7 cells overexpressing PPM1D after 1 to 5 days by trypan blue assay. The class given is functional, cell-based.
Experiment [19] has as its system MCF7. Kind of experiment: Induction of cell cycle arrest in human MCF7 cells assessed as accumulation at G2/M phase at 40 uM after 5 days by propidium iodide staining-based flow cytometry (reference value: 21.2 %). Format: functional.
Experiment [20] concerns the target T3, Protein phosphatase 1A (Homo sapiens) (UniProt P35813).
T3 sequence (whole entry): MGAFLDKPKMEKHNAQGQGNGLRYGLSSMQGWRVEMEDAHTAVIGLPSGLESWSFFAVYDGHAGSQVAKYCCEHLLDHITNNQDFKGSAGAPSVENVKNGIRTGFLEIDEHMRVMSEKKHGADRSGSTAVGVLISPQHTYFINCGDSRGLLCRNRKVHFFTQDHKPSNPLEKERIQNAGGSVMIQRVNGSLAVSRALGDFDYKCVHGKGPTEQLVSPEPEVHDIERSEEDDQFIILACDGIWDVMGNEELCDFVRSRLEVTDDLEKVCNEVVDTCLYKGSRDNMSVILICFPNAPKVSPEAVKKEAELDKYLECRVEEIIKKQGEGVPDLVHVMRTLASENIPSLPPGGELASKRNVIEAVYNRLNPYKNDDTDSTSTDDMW
The experiment is described as follows: Inhibition of wild-type PPM1A expressed in BL21(DE3)pLysS cells at 40 uM after 10 mins by BIOMOL GREEN assay. Format: cell-based.

Experiment [21] concerns MCF7. The experiment is described as follows: Induction of cell cycle arrest in human MCF7 cells assessed as increase in accumulation at Sub-G1 phase at 40 uM after 1 day by propidium iodide staining-based flow cytometry. The class given is functional.
Experiment [22] in a line: Selectivity ratio for PPM1Dc over PPM1A.
Experiment [23] concerns MCF7. The experiment is described as follows: Induction of cell cycle arrest in human MCF7 cells assessed as accumulation at […] phase at 40 uM after 3 days by propidium iodide staining-based flow cytometry (reference value: 29.3 %). Format: functional.
Experiment [24] relates to MCF7. Kind of experiment: Induction of cell cycle arrest in human MCF7 cells assessed as accumulation at G1 phase at 40 uM after 5 days by propidium iodide staining-based flow cytometry (reference value: 57 %). Format: functional.
For experiment [25], the system named is MCF7. Kind of experiment: Induction of cell cycle arrest in human MCF7 cells assessed as accumulation at G1 phase at 40 uM after 1 day by propidium iodide staining-based flow cytometry (reference value: 45.6 %). Format: functional.

In the case of `CC[Si](CC)(CC)O[C@@H]1C[C@H](C)C[C@@H]2[C@@H]1C[C@H](O[Si](C)(C)C(C)(C)C)[C@H]1[C@@]2(C)C[C@@H]2C[C@@]1(C)C(O)O2` (stereo not given in full), in experiment [1], the inhibition is 87.1%.
Still for that read-out and setting: then `CC[Si](CC)(CC)O[C@@H]1C[C@H](C)C[C@@H]2[C@@H]1C[C@H](O[Si](C)(C)C(C)(C)C)[C@@H]1[C@](C)(CO)CC(=O)C[C@@]21C`, with 79.4%.
On to `CC[Si](CC)(CC)O[C@@H]1C[C@H](C)C[C@@H]2[C@@H]1C[C@H](O[Si](C)(C)C(C)(C)C)[C@@H]1[C@](C)(CO)C[C@H](O)C[C@@]21C`, for which the inhibition entry in [2] and in experiment [3] was “Active” throughout. In addition, the result in experiment [4] and in experiment [14] was Active. Moreover, in experiment [5], inhibition was half-maximal at 480 nM (IC50). In addition, the Activity was over 60% in [6]; 15% in experiment [7]; “tde” in experiment [8]; 39.3% in experiment [9]; 28.2% in experiment [10]; 25.3% in [11]. The Activity in experiment [12] was 16.8%; in experiment [15], 16.4%; in experiment [17], 29.8%; in experiment [18], “Dose-dependent effect”; in experiment [19], 12.9%; in experiment [21] it was 5.3%. In addition, the results for the Activity in [23], in experiment [24] and in [25] were 16%, 46.8% and 39%, respectively. Further, in experiment [13], the result was inactive. For the same molecule, the inhibition in [16] worked out at 11%; in experiment [20], 68%; in [1] it was 97.1%. In experiment [22], the Selectivity ratio was 50.
`C[C@H]1C[C@@H](O)[C@H]2C[C@H](O[Si](C)(C)C(C)(C)C)[C@@H]3[C@](C)(CO)C[C@H](O)C[C@@]3(C)[C@@H]2C1` came in with an inhibition in [1] of 25.1%.
Turning to `C[C@H]1C[C@@H](O)[C@H]2C[C@H](O)[C@@H]3[C@](C)(CO)C[C@H](O)C[C@@]3(C)[C@@H]2C1`, the outcome in experiment [6] was inactive. In experiment [1], this molecule gave an inhibition of 6.3%.

Broadly, the inhibition is how much of the control response was suppressed. As a reminder, the IC50 is the concentration that gives 50% inhibition.
